The values below come from patent US20020187938A1, “Ghrelin antagonists” (priority 2000, published 2002).

Converted amounts (≈) assume the structure as drawn. “And” between values parts separate entries of the source, which are not always exact repeats. Identical values can stand only once. Where a SMILES comes first, the peptide text is derived from it. Where no end group is shown, it is not given here. The star is where a group is joined. Octanoyl = CCCCCCCC(=O)*

The nature of one data set: Solubility in water. It counts as physicochemical. To be noted: for solubility: water. Here is the method:
Solubility in water: 0.7 mg/ml

For another data set, the system named is circulating GH. The data set is described as follows: Circulating GH in 10-day old rats after subcutaneous injection. The format is in vivo. The following applies: 300 mg/kg, circulating GH at 15 minutes. On the procedure:
The peptide was injected subcutaneously in 10-day old rats at a dose of 300 mg/kg along with a solvent control and Ghrelin, and the circulating GH determined at 15 minutes, as described in R. Deghenghi et al., Life Sciences 54, 1321-1328 (1994). The results were as follows: The peptide was administered to rats as described above in Example 1. […]

`CCCCCCCC(=O)OC[C@H](NC(=O)[C@H](CO)NC(=O)CN)C(=O)N[C@@H](Cc1ccccc1)C(=O)O` [Peptide of Example 3, Gly-Ser-Ser(Octanoyl)-Phe] (H-GSS(Octanoyl)F-OH; N-terminus and C-terminus assumed): the Solubility in water result in the data set “Solubility in water” is listed as “insoluble”.

Compound `CCCCCCCC(=O)OC[C@H](NC(=O)[C@H](CO)NC(=O)CN)C(=O)N[C@@H](Cc1ccccc1)C(=O)N[C@@H](CC(C)C)C(=O)N[C@@H](CO)C(=O)N1CCC[C@H]1C(=O)N[C@@H](CCC(=O)O)C(=O)N[C@@H](C)C(=O)N[C@@H](CCCCN)C(=O)N[C@@H](CC(C)C)C(=O)N[C@@H](CCC(N)=O)C(=O)N1CCC[C@H]1C(=O)N[C@@H](CCCNC(=N)N)C(=O)O` [Peptide of Example 2, Gly-Ser-Ser(Octanoyl)-Phe-Leu-Ser-Pro-Glu-Ala-Lys-Leu-Gln-Pro-Arg] (H-GSS(Octanoyl)FLSPEAKLQPR-OH) gave a GH with circulating GH of 7.00 ± 3.5 ng/mL. The compound further returned a solubility in “Solubility in water” of 900 µg/mL (≈ 548 µM). In the case of “Ghrelin (human): peptide of 27 or 28 amino acids with an octanoyl ester on a serine residue; potent releaser of growth hormone (GSS(Octanoyl)FLSPEHQRVQQRKESKKPPAKLQPR; also: octanoyl ester on a serine residue; UniProt Q9UBU3 24-51, looked up)”, the GH in the data set with circulating GH was 139.80 ± 15.37 ng/mL and 140 ± 15 ng/mL and 139.8 ± 15.4 ng/mL. In the case of `CCCCCCCC(=O)OC[C@H](NC(=O)[C@H](CO)NC(=O)CN)C(=O)N[C@@H](Cc1ccccc1)C(=O)N[C@@H](CC(C)C)C(=O)N[C@@H](CO)C(=O)N1CCC[C@H]1C(=O)N[C@@H](CCC(=O)O)C(=O)O` [Peptide of Example 1, Gly-Ser-Ser(Octanoyl)-Phe-Leu-Ser-Pro-Glu], the solubility in “Solubility in water” came to 700 µg/mL (≈ 738 µM).
